Measured values published in patent US20130273113A1 (priority 2012, published 2013).

Tests used:
nasal epithelial cells = assay: Detection of apoptosis (caspase-3 staining) and necrosis (morphology) in nasal epithelium; details: 2 hours following nasal treatment, 15 μl
TC-1 epithelial cells = assay type: cell-based, murine
[1] = tested on: B6.Cg-Tg(HLA-A/H2-D)2Enge/J mice; details: mouse, in vivo
[2] = tested on: Bone marrow derived dendritic cells (BMDC); assay type: cell-based, C57BL/6 mice
nasal septal tissue = tested on: nasal septal tissue; parameters: species or system C57BL/6 mice; details: mouse, in vivo
[3] = tested on: primary nasal septal epithelial cells; assay type: cell-based, C57BL/6N mice

| Molecule | inflammation in nasal epithelium (nasal epithelial cells) | IL-6, TGF-β and TSLP in TC-1 supernatant (TC-1 epithelial cells) | end titer of anti-HBsAg IgG [1] | secreted anti-HBsAg IgA [1] | cytokines and chemokines in BMDC supernatant [2] | cytokine response profile in nasal septal tissue (nasal septal tissue) | surface expression of MHC class II [3] |
| --- | --- | --- | --- | --- | --- | --- | --- |
| CCCCCCCCCCCCCCCC[n+]1ccccc1 [CPC, cetylpyridinium chloride] | neutrophilic infiltration |  |  |  |  |  |  |
| cholera toxin [CT] |  | only IL-6 was induced | 6.4×10^5 | equivalent local mucosal immune responses | stimulated IL-1α, IL-1β and MIP-1α in BMDC in addition to IL-10, G-CSF, IL-10, IL-4, IL-6, IL-9, IL-12, IL-15, IL-17, TNF-α, and KC | increases in only IL-6 and IL-12 common to both NE and CT | no significant difference |
